Experimental data: ChEMBL document CHEMBL5380853, “Lead Optimization of Androgen Receptor-HSP27 Disrupting Agents in Glioblastoma” (J Med Chem, 2023)
Calls of active or inactive are those of the source. The rule behind the calls is not given here.

What was measured:
[1] = system: U-87 MG; assay: Growth inhibition of AR-overexpressing human U87 cells measured after 48 hrs by MTT assay; assay type: functional, cell-based, U-87MG ATCC
[2] = system: T98G; assay: Growth inhibition of AR-overexpressing human T98G cells measured after 48 hrs by MTT assay; assay type: functional, cell-based
[3] = system: T98G; assay: Down regulation of androgen receptor activity in AR-overexpressing human T98G cells at 100 nM measured after 12 hrs by Western blotting analysis; assay type: functional, cell-based
[4] = Apparent half life in mouse plasma at 20 mg/kg, ip measured for 24 hrs by LC-MS/MS analysis; assay type: ADME, organism-based; details: plasma

Row | SMILES | IC50 [1] [nM] | IC50 [2] [nM] | Activity [3] | half-life [4] [h]
1 | COc1ccc(OC)c(COc2cc(NC(=O)c3ccc(SC)cc3)ccc2NS(C)(=O)=O)c1 | 92 | 29 | Active | 
2 | COc1ccc(OC)c(COc2cc(NC(=O)c3cccc([N+](=O)[O-])c3)ccc2NS(C)(=O)=O)c1 | 2040 | 5070 |  | 
3 | COc1ccc(OC)c(COc2cc(NC(=O)c3ccc([N+](=O)[O-])cc3)ccc2NS(C)(=O)=O)c1 | > 10000 | 1190 | Active | 
4 | COc1ccc(OC)c(COc2cc(NC(=O)c3cccc(Br)c3)ccc2NS(C)(=O)=O)c1 | 530 | 2670 | Active | 
5 | COc1ccc(OC)c(COc2cc(NC(=O)c3cccc(Cl)c3)ccc2NS(C)(=O)=O)c1 | > 10000 | 65 |  | 
6 | COc1ccc(OC)c(COc2cc(NC(=O)COCC(=O)Nc3ccc(NS(C)(=O)=O)c(OCc4cc(OC)ccc4OC)c3)ccc2NS(C)(=O)=O)c1 | > 10000 | > 10000 |  | 
7 | CCCCCC(=O)Nc1ccc(NS(C)(=O)=O)c(OCc2cc(OC)ccc2OC)c1 | 2040 | 1190 |  | 
8 | CCOc1cccc(C(=O)Nc2ccc(NS(C)(=O)=O)c(OCc3cc(OC)ccc3OC)c2)c1 | 3830 | 38.4 |  | 
9 | COc1cccc(C(=O)Nc2ccc(NS(C)(=O)=O)c(OCc3cc(OC)ccc3OC)c2)c1 | 8310 | 220 |  | 
10 | COc1ccc(OC)c(COc2cc(NC(=O)c3cc(C(F)(F)F)cc(C(F)(F)F)c3)ccc2NS(C)(=O)=O)c1 | 2650 | 1040 |  | 
11 | COc1ccc(OC)c(COc2cc(NC(=O)c3cccc(I)c3)ccc2NS(C)(=O)=O)c1 | 210 | 130 |  | 
12 | COc1ccc(OC)c(COc2cc(NC(=O)c3cccc(C)c3)ccc2NS(C)(=O)=O)c1 | > 10000 | 422 |  | 
13 | COc1ccc(OC)c(COc2cc(NC(=O)c3ccc(N)cc3)ccc2NS(C)(=O)=O)c1 | 2060 | 3610 |  | 
14 | COc1ccc(OC)c(COc2cc(NC(=O)c3ccc(C)cc3)ccc2NS(C)(=O)=O)c1 | 91 | 213 |  | 
15 | COc1ccc(OC)c(COc2cc(NC(=O)c3cccc(C(F)(F)F)c3)ccc2NS(C)(=O)=O)c1 | 998 | 423 |  | 
16 | COc1ccc(OC)c(COc2cc(NC(=O)c3cccc(C#N)c3)ccc2NS(C)(=O)=O)c1 | 1890 | 5030 |  | 
17 | COc1ccc(OC)c(COc2cc(NC(=O)c3ccc(C(F)(F)F)c(F)c3)ccc2NS(C)(=O)=O)c1 | 1500 | 4770 |  | 
18 | CCc1ccc(C(=O)Nc2ccc(NS(C)(=O)=O)c(OCc3cc(OC)ccc3OC)c2)cc1 | 1870 | 3850 |  | 
19 | COc1ccc(OC)c(COc2cc(NC(=O)c3ccc(N(C)C)cc3)ccc2NS(C)(=O)=O)c1 | > 10000 | 1910 |  | 
20 | COc1ccc(C(=O)Nc2ccc(NS(C)(=O)=O)c(OCc3cc(OC)ccc3OC)c2)cc1 |  |  |  | 1.5
21 | COc1ccc(OC)c(COc2cc(NC(=O)c3ccc(OC)c(OC)c3)ccc2NS(C)(=O)=O)c1 | 220 | 90 |  | 

Row | SMILES | IC50 [1] [nM] | IC50 [2] [nM] | Activity [3] | half-life [4] [h]
22 | COc1ccc(OC)c(COc2cc(NC(=O)c3cc(OC)c(OC)c(OC)c3)ccc2NS(C)(=O)=O)c1 | 3370 | 218 |  | 
23 | COc1ccc(OC)c(COc2cc(NC(=O)c3ccc(C(F)(F)F)cc3C(F)(F)F)ccc2NS(C)(=O)=O)c1 | 1710 | 2360 |  | 
24 | COc1ccc(OC)c(COc2cc(NC(=O)c3ccc(Br)cc3)ccc2NS(C)(=O)=O)c1 | 155 | 148 |  | 
25 | COc1ccc(OC)c(COc2cc(NC(=O)c3ccc(OC(F)(F)F)cc3)ccc2NS(C)(=O)=O)c1 | 2490 | 899 | Active | 
26 | COc1ccc(OC)c(COc2cc(NC(=O)c3ccc(C)c([N+](=O)[O-])c3)ccc2NS(C)(=O)=O)c1 | 2630 | 3690 |  | 
27 | COc1ccc(OC)c(COc2cc(NC(=O)c3ccc(Cl)cc3)ccc2NS(C)(=O)=O)c1 | 208 | 77 |  | 
28 | COc1ccc(OC)c(COc2cc(NC(=O)c3ccno3)ccc2NS(C)(=O)=O)c1 | > 10000 | 3960 | Active | 
29 | COc1ccc(OC)c(COc2cc(NC(=O)c3ccc(Cl)c(Cl)c3)ccc2NS(C)(=O)=O)c1 | 476 | 2380 |  | 
30 | COc1ccc(OC)c(COc2cc(NC(=O)c3ccccc3C)ccc2NS(C)(=O)=O)c1 | 1190 | 306 | Active | 
31 | COc1ccc(OC)c(COc2cc(NC(=O)c3ccc(C#N)cc3)ccc2NS(C)(=O)=O)c1 | 2880 | 790 |  | 
32 | COc1ccc(OC)c(COc2cc(NC(=O)c3ccc(-c4ccccc4)cc3)ccc2NS(C)(=O)=O)c1 | 6910 | 455 |  | 
33 | COc1ccc(OC)c(COc2cc(NC(=O)c3ccc(C(F)(F)F)cc3)ccc2NS(C)(=O)=O)c1 | 2080 | > 10000 |  | 
34 | COc1ccc(OC)c(COc2cc(NC(=O)OCCOCCOCCOC(=O)Nc3ccc(NS(C)(=O)=O)c(OCc4cc(OC)ccc4OC)c3)ccc2NS(C)(=O)=O)c1 | > 10000 | 5470 |  | 
35 | COc1ccc(OC)c(COc2cc(NC(=O)c3cccs3)ccc2NS(C)(=O)=O)c1 | > 10000 | 3430 | Active | 
36 | COc1ccc(OC)c(COc2cc(NC(=O)c3cc(Cl)cc(Cl)c3)ccc2NS(C)(=O)=O)c1 | 150 | 97 |  | 
37 | COc1ccc(OC)c(COc2cc(NC(=O)c3ccc(Cl)c([N+](=O)[O-])c3)ccc2NS(C)(=O)=O)c1 | > 10000 | 570 |  | 
38 | COc1ccc(OC)c(COc2cc(NC(=O)c3ccc(NC(=O)COCC(=O)Nc4ccc(C(=O)Nc5ccc(NS(C)(=O)=O)c(OCc6cc(OC)ccc6OC)c5)cc4)cc3)ccc2NS(C)(=O)=O)c1 | > 10000 | > 10000 |  | 
39 | COc1ccc(OC)c(COc2cc(NC(=O)c3ccc(I)cc3)ccc2NS(C)(=O)=O)c1 | 46 | 48 |  | 
40 | COc1ccc(OC)c(COc2cc(NC(=O)OCCOC(=O)Nc3ccc(NS(C)(=O)=O)c(OCc4cc(OC)ccc4OC)c3)ccc2NS(C)(=O)=O)c1 | 5230 | 2280 |  | 
41 | COc1ccc(OC)c(COc2cc(NC(=O)CCCC(=O)Nc3ccc(NS(C)(=O)=O)c(OCc4cc(OC)ccc4OC)c3)ccc2NS(C)(=O)=O)c1 | > 10000 | > 10000 | Active | 
